Test results published in patent US9216983B2, “Dihydroorotate dehydrogenase inhibitors with selective anti-malarial activity” (BOARD OF REGENTS, UNIVERSITY OF TEXAS SYSTEM, priority 2007, dated 2015).
Where two headings read alike, the source gives them in different places.

What was measured:
PfDHODH = target: T1, PfDHODH (Plasmodium falciparum, UniProt Q08210); assay: biochemical
T1 sequence (Q08210 24-569): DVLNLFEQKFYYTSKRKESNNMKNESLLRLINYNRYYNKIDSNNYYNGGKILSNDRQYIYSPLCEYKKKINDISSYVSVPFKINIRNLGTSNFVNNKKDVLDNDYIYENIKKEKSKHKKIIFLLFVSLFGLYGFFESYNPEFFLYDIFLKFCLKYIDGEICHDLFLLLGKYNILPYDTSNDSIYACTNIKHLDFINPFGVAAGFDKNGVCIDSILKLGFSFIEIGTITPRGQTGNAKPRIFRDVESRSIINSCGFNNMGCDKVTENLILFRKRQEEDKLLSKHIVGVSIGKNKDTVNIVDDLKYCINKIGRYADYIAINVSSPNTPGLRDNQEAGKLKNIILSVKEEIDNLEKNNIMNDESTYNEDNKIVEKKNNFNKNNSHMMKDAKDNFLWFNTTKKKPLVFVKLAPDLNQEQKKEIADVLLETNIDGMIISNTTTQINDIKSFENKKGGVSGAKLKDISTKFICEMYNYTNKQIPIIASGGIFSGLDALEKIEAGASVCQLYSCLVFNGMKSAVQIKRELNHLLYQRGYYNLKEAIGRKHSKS
Protocol: (§1) Briefly, the assay solution contained 100 mM HEPES, pH 8.0, 150 mM NaCl, 10% glycerol, 0.1% Triton X-100, 20 micro molar COQD (coenzyme QD), 200 micro molar L-dihydroorotate, and 120 micro molar DCIP. Reactions are initiated by addition of enzyme to a final concentration in the range of about […] to about 50 nM while maintaining the temperature of a circulating water bath at 25° C.
(§2) Assay solutions were prepared as discussed above, except that DCIP is not present and the solution is depleted of oxygen by the inclusion of an oxidase/reductase system, such as, 0.1 mg/ml of glucose oxidase, 0.02 mg/ml catalase and 50 mM glucose. The data obtained is fitted to equation 1, to determine the IC50 values of the representative compounds.

hDHODH = hDHODH (Homo sapiens, UniProt Q02127); assay: DHODH enzyme inhibition assay, hDHODH; type: biochemical; conditions: Table 4, IC50 class; read-out: hDHODH
Sequence of hDHODH (Q02127 whole entry): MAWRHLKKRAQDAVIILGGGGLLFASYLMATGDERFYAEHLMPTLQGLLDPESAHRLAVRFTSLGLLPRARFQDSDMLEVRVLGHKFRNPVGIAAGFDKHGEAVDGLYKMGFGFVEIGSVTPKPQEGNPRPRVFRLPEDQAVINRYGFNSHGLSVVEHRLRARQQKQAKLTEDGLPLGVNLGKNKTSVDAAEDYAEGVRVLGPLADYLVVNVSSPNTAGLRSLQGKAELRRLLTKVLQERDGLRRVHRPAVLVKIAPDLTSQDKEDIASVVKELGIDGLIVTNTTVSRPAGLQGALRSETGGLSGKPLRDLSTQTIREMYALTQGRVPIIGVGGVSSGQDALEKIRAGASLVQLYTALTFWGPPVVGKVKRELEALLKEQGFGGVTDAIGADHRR
Protocol: as §1, §2

PbDHODH = PbDHODH (Plasmodium berghei, UniProt A0A509AEH5); assay: DHODH enzyme inhibition assay, PbDHODH; type: biochemical, P. berghei; conditions: Table 4, IC50 class
Sequence of PbDHODH (A0A509AEH5 entry or part of it): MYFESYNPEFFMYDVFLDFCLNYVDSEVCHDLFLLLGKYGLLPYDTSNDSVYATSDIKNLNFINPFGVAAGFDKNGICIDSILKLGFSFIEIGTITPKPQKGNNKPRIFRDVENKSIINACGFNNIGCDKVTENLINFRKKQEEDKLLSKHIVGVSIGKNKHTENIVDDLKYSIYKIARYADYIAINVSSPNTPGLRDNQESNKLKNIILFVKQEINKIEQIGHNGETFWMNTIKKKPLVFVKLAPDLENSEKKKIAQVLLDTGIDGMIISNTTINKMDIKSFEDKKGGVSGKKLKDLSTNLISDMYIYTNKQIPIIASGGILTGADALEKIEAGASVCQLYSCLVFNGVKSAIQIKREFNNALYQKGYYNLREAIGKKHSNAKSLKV
Protocol: as §1, §2

P. falciparum = assay: Inhibition of cell proliferation, 3H-hypoxanthine uptake in P. falciparum-infected erythrocytes; type: cell-based; conditions: Plasmodium falciparum, 3D7, Erythrocyte, Table 5, 3D7 cells; read-out: EC50 P. falciparum 3D7 cells
Description: [formula] II. In Vitro Evaluation of Compound Efficacy on the Human Malaria Parasite, P. falciparum.

[1] = Table 5, read-out: PfDHODH IC50
[2] = Table 4, IC50 class, read-out: PfDHODH

SMILES	IC50 (PfDHODH; [1]) [µM]	IC50 (hDHODH) [µM]	IC50 (PfDHODH; [2]) [µM]	IC50 (PbDHODH; PbDHODH) [µM]	also measured
COc1ccc(Nc2cc(C)nc3nc(C)nn23)cc1Cl [drawing 98]	0.375				
Cc1cc(Nc2ccc(C)c(C(F)(F)F)c2)n2ncnc2n1		> 10	< 2		IC50 (PbDHODH; read-out: PbDHODH): 2 to 10 µM
Cc1cc(NCCCc2ccccc2)n2ncnc2n1		> 10	> 10		IC50 (PbDHODH; read-out: PbDHODH): > 10 µM
Cc1nc2nc(C)c(Cl)c(Nc3ccc(C(F)(F)F)cc3)n2n1 [6-chloro-2,5-dimethyl-N-(4-(trifluoromethyl)phenyl)-[1,2,4]triazolo[1,5-a]pyrimidin-7-amine]	0.62 ± 0.08				EC50 (P. falciparum): 7.1 ± 0.04 µM
Cc1cc(Nc2ccc(F)c(F)c2F)n2ncnc2n1		> 10	> 10		IC50 (PbDHODH; read-out: PbDHODH): > 10 µM
Cc1cc(Nc2ccc([N+](=O)[O-])cc2)n2ncnc2n1			2 to 10	2 to 10	
CCCCc1ccc(Nc2cc(C)nc3ncnn23)cc1		> 10	< 2	2 to 10	
Cc1cc(Nc2ccc(I)cc2)n2ncnc2n1	0.151				
CCc1nc2nc(C)cc(Nc3ccc(F)c(Cl)c3)n2n1	0.145				
CCCCCCc1ccc(Nc2cc(C)nc3ncnn23)cc1			2 to 10	> 10	
Cc1cccc(Nc2cc(C)nc3ncnn23)c1			2 to 10	> 10	
Cc1cc(Nc2cccc(F)c2F)n2ncnc2n1			> 10	> 10	
Cc1cc(Nc2ccc(Br)c(C(F)(F)F)c2)n2ncnc2n1		> 10	< 2		IC50 (PbDHODH; read-out: PbDHODH): < 2 µM
Cc1cc(Nc2ccccc2Cl)n2ncnc2n1			> 10	> 10	
Cc1cc(Nc2ccc(Cl)cc2)n2ncnc2n1		> 10	< 2		IC50 (PbDHODH; read-out: PbDHODH): 2 to 10 µM
Cc1cc(Nc2ccc(OC(F)(F)F)cc2)n2ncnc2n1		> 10	< 2		IC50 (PbDHODH; read-out: PbDHODH): > 10 µM
CCc1ccc(Nc2cc(C)nc3ncnn23)cc1		> 10	< 2	2 to 10	
Cc1cc(Nc2ccc(C(F)(F)F)cc2)n2ncnc2n1 [drawing 93]					EC50 (P. falciparum): 0.33 ± 0.02 µM
Cc1ccc(Nc2cc(C)nc3ncnn23)c(F)c1		> 10	> 10		IC50 (PbDHODH; read-out: PbDHODH): > 10 µM
Cc1cc(Nc2ccc(C)c(Cl)c2)n2ncnc2n1	0.24				
Cc1cc(Nc2ccc(OCc3ccccc3)cc2)n2ncnc2n1	6.3 ± 0.95				

SMILES	IC50 (PfDHODH; [1]) [µM]	IC50 (hDHODH) [µM]	IC50 (PfDHODH; [2]) [µM]	IC50 (PbDHODH; PbDHODH) [µM]	also measured
CCCc1ccc(Nc2cc(C)nc3ncnn23)cc1		> 10	< 2	2 to 10	
Cc1cc(Nc2ccc(N3CCOCC3)cc2)n2ncnc2n1	> 100				
CCc1cccc(Nc2cc(C)nc3ncnn23)c1	0.641				
Cc1cc(Nc2ccccc2C)n2ncnc2n1			> 10	> 10	
Cc1cc(Nc2ccc(C(C)C)cc2)n2ncnc2n1		> 10	< 2	< 2	
CCc1nc2nc(C)cc(Nc3ccc(C)c(F)c3)n2n1	0.0663				
Cc1cc(Nc2ccc(C)c(F)c2)n2ncnc2n1		> 10	< 2		IC50 (PbDHODH; read-out: PbDHODH): 2 to 10 µM
Cc1cc(Nc2ccc3c(c2)CCC3)n2ncnc2n1	0.116 ± 0.03				
CCc1nc2nc(C)cc(Nc3ccc(Br)cc3F)n2n1	0.395				
Cc1cc(Nc2ccc(-c3ccccc3)cc2)n2ncnc2n1			2 to 10		
Cc1cc(Nc2ccc(C(F)(F)F)c(F)c2)n2ncnc2n1		> 10	< 2		IC50 (PbDHODH; read-out: PbDHODH): < 2 µM
Cc1cc(Nc2cc(C(F)(F)F)cc(C(F)(F)F)c2)n2ncnc2n1		> 10	> 10		IC50 (PbDHODH; read-out: PbDHODH): > 10 µM
Cc1cc(Nc2ccccc2C#N)n2ncnc2n1			> 10	> 10	
Cc1cc(Nc2cc(F)c(F)cc2F)n2ncnc2n1			> 10	> 10	
CCc1nc2nc(C)cc(Nc3cccc(C(F)(F)F)c3)n2n1	1.17				
COc1ccc(Nc2cc(C)nc3nc(C)nn23)cc1Cl [drawing 99]	0.326				
Cc1cc(Nc2c(F)c(F)c(F)c(F)c2F)n2ncnc2n1			> 10	> 10	
Cc1cc(Nc2cccc(F)c2)n2ncnc2n1		> 10	2 to 10		IC50 (PbDHODH; read-out: PbDHODH): > 10 µM
Cc1cc(Nc2ccccc2C(F)(F)F)n2ncnc2n1			> 10	> 10	
Cc1cc(Nc2cccc(Cl)c2)n2ncnc2n1 [drawing 35]					IC50 (PfDHODH; PfDHODH, Table 4, IC50 class): < 2 µM
Cc1cc(Nc2ccc(C)c(C)c2)n2ncnc2n1		> 10	< 2		IC50 (PbDHODH; read-out: PbDHODH): 2 to 10 µM

SMILES	IC50 (PfDHODH; [1]) [µM]	IC50 (hDHODH) [µM]	IC50 (PfDHODH; [2]) [µM]	IC50 (PbDHODH; PbDHODH) [µM]	also measured
Cc1cc(Nc2ccc(C)c(C)c2)n2nc(C)nc2n1	0.0814				
Cc1cc(Nc2ccc(C(C)(C)C)cc2)n2ncnc2n1			< 2	< 2	
Cc1cc(Nc2ccc(Cc3ccccc3)cc2)n2ncnc2n1		2 to 10	< 2		IC50 (PbDHODH; read-out: PbDHODH): > 10 µM
Cc1cc(Nc2ccc3c(c2)CCCC3)n2ncnc2n1	0.05 ± 0.008				
C#Cc1ccc(Nc2cc(C)nc3ncnn23)cc1	0.99 ± 0.18				
Cc1cc(Nc2ccc(OC(F)F)cc2)n2ncnc2n1 [drawing 44]			< 2	> 10	
Cc1cc(Nc2cc(F)cc(F)c2)n2ncnc2n1		> 10	2 to 10		IC50 (PbDHODH; read-out: PbDHODH): > 10 µM
CCCCCCCc1ccc(Nc2cc(C)nc3ncnn23)cc1			> 10	> 10	
Cc1cc(Nc2ccc(F)cc2)n2ncnc2n1			> 10	> 10	
Cc1cc(Nc2ccc(Cl)c(C)c2)n2nc(C)nc2n1	1.39				
CCCc1nc2nc(C)cc(Nc3ccc(C)c(F)c3)n2n1	0.277				
CCCCCc1ccc(Nc2cc(C)nc3ncnn23)cc1			< 2	> 10	
Cc1cc(Nc2ccccc2F)n2ncnc2n1			> 10	> 10	
Cc1cc(Nc2cccc(C(F)(F)F)c2)n2ncnc2n1		> 10	> 10		IC50 (PbDHODH; read-out: PbDHODH): > 10 µM
CCCCCCCCc1ccc(Nc2cc(C)nc3ncnn23)cc1			> 10	> 10	
Cc1cc(Nc2ccc(Cl)c(Cl)c2)n2nc(C)nc2n1	0.0752				
Cc1ccc(Nc2cc(C)nc3ncnn23)cc1			2 to 10	> 10	
Cc1cc(Nc2cccc(Cl)c2)n2ncnc2n1 [drawing 116]					IC50 (PfDHODH; PfDHODH IC50, Table 5): 0.566 µM
Cc1cc(Nc2cc(F)ccc2F)n2ncnc2n1			> 10	> 10	
Cc1cc(Nc2ccc3c(c2)OCO3)n2ncnc2n1		> 10	< 2	> 10	
COc1ccc(Nc2cc(C)nc3ncnn23)cc1Cl	0.362				

SMILES	IC50 (PfDHODH; [1]) [µM]	IC50 (hDHODH) [µM]	IC50 (PfDHODH; [2]) [µM]	IC50 (PbDHODH; PbDHODH) [µM]	also measured
Cc1cc(Nc2c(F)c(F)cc(F)c2F)n2ncnc2n1			> 10	> 10	
Cc1cc(Nc2cccc(C(F)(F)F)c2)n2nc(C)nc2n1	0.285				
Cc1cc(Nc2ccc(Cl)c(C(F)(F)F)c2)n2ncnc2n1			< 2		IC50 (PbDHODH; read-out: PbDHODH): < 2 µM
Cc1cc(Nc2ccc(S(F)(F)(F)(F)F)cc2)n2ncnc2n1	0.117 ± 0.01				
Cc1cc(Nc2ccc(F)c(F)c2)n2ncnc2n1			2 to 10	2 to 10	
CCc1nc2nc(C)cc(Nc3ccc(OC)cc3)n2n1	2.25				
Cc1cc(Nc2ccc(C)c(F)c2)n2nc(C)nc2n1	0.629				
Cc1cc(Nc2ccc(C#N)c(C(F)(F)F)c2)n2ncnc2n1		2 to 10		> 10	IC50 (PfDHODH; PfDHODH, Table 4, IC50 class): 2 to 10 µM
C=Cc1ccc(Nc2cc(C)nc3ncnn23)cc1				2 to 10	
Cc1cc(Nc2c(F)cccc2F)n2ncnc2n1			> 10	> 10	
CCc1nc2nc(C)cc(Nc3ccc(I)cc3)n2n1	0.0379				
CCCc1nc2nc(C)cc(Nc3cccc(Cl)c3)n2n1	0.247				
COc1ccc(Nc2cc(C)nc3ncnn23)cc1		> 10	< 2		IC50 (PbDHODH; read-out: PbDHODH): < 2 µM
Cc1cc(Nc2ccc3[nH]c(C(F)(F)F)nc3c2)n2ncnc2n1		> 10	> 10		IC50 (PbDHODH; read-out: PbDHODH): > 10 µM
Cc1cc(Nc2ccc(Br)cc2)n2ncnc2n1			2 to 10	> 10	
Cc1cc(Nc2c(F)cc(F)cc2F)n2ncnc2n1		> 10	> 10		IC50 (PbDHODH; read-out: PbDHODH): > 10 µM
Cc1cc(Nc2ccc(F)c(C)c2)n2ncnc2n1 [drawing 39]		2 to 10	2 to 10		IC50 (PbDHODH; read-out: PbDHODH): > 10 µM
Cc1cc(Nc2ccc(N(C)C)cc2)n2ncnc2n1			< 2	> 10	
Cc1cc(Nc2ccc(C#N)cc2)n2ncnc2n1			2 to 10		
CCCc1nc2nc(C)cc(Nc3ccc(C)c(Cl)c3)n2n1	0.132				
